A word on the Hill coefficient: it is the slope factor of the fitted curve.

The values below come from ChEMBL document CHEMBL1146694, “Novel targeting strategy based on multimeric ligands for drug delivery and molecular imaging: homooligomers of alpha-MSH” (Bioorg Med Chem Lett, 2004).

One data set concerns the target Melanocortin receptor 4 (Homo sapiens, UniProt P32245). Nature of the data set: Binding affinity towards human melanocortin 4 receptor was determined using [125I]-NDP-alpha-MSH as radioligand transfected in HEK293 human embryonic kidney cells. To be noted: read-out: EC50. It is filed as cell-based.
A short description of data set [1]: Hill coefficient was determined. Type of data set: ADME.

Structures are written as SMILES.

Chain of Melanocortin receptor 4 (P32245 whole entry): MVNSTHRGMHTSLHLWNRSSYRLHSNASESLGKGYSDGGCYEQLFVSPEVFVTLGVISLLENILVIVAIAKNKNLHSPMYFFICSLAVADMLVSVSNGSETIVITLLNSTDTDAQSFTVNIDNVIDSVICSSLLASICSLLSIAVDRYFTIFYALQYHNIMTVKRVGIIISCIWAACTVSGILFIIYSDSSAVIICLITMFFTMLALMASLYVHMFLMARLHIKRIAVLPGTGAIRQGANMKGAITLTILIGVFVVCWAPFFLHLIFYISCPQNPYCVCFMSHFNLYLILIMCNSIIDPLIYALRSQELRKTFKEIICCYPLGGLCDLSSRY

As to `CC(=O)N[C@@H](Cc1cnc[nH]1)C(=O)N[C@H](Cc1ccccc1)C(=O)N[C@@H](CCCNC(=N)N)C(=O)N[C@@H](Cc1c[nH]c2ccccc12)C(=O)NCCC(=O)NCC(=O)NCCC(=O)N[C@@H](Cc1cnc[nH]1)C(=O)N[C@H](Cc1ccccc1)C(=O)N[C@@H](CCCNC(=N)N)C(=O)N[C@@H](Cc1c[nH]c2ccccc12)C(N)=O`, the binding affinity (radioligand displacement) on Melanocortin receptor 4 was determined as 143 nM. The molecule further yielded a Hill coefficient in data set [1] of 0.99.

For `CC(=O)N[C@@H](Cc1c[nH]cn1)C(=O)N[C@H](Cc1ccccc1)C(=O)N[C@@H](CCCN=C(N)N)C(=O)N[C@@H](Cc1c[nH]c2ccccc12)C(=O)N1CCC[C@H]1C(=O)NCC(=O)N1CCC[C@H]1C(=O)N[C@@H](Cc1c[nH]cn1)C(=O)N[C@H](Cc1ccccc1)C(=O)N[C@@H](CCCN=C(N)N)C(=O)N[C@@H](Cc1c[nH]c2ccccc12)C(N)=O`, on Melanocortin receptor 4, the binding affinity (radioligand displacement) amounted to 14 nM. In addition, the Hill coefficient in data set [1] is listed as 0.84.

Take `CC(=O)N[C@@H](Cc1c[nH]cn1)C(=O)N[C@H](Cc1ccccc1)C(=O)N[C@@H](CCCN=C(N)N)C(=O)N[C@@H](Cc1c[nH]c2ccccc12)C(=O)N[C@@H](Cc1c[nH]cn1)C(=O)N[C@H](Cc1ccccc1)C(=O)N[C@@H](CCCN=C(N)N)C(=O)N[C@@H](Cc1c[nH]c2ccccc12)C(N)=O`: on Melanocortin receptor 4, the binding affinity (radioligand displacement) stood at 264 nM. In data set [1], this molecule gave a Hill coefficient of 0.9.

As for `CC(=O)N[C@@H](Cc1c[nH]cn1)C(=O)N[C@H](Cc1ccccc1)C(=O)N[C@@H](CCCN=C(N)N)C(=O)N[C@@H](Cc1c[nH]c2ccccc12)C(=O)NCCC(=O)NCC(=O)NCCC(=O)NCC(=O)NCCC(=O)NCC(=O)NCCC(=O)N[C@@H](Cc1c[nH]cn1)C(=O)N[C@H](Cc1ccccc1)C(=O)N[C@@H](CCCN=C(N)N)C(=O)N[C@@H](Cc1c[nH]c2ccccc12)C(N)=O`, the binding affinity (radioligand displacement) on Melanocortin receptor 4 stood at 571 nM. In addition, the Hill coefficient in data set [1] is listed as 0.88.

On to `CC(=O)N[C@@H](Cc1c[nH]cn1)C(=O)N[C@H](Cc1ccccc1)C(=O)N[C@@H](CCCN=C(N)N)C(=O)N[C@@H](Cc1c[nH]c2ccccc12)C(=O)Nc1ccc(C(=O)N[C@@H](Cc2c[nH]cn2)C(=O)N[C@H](Cc2ccccc2)C(=O)N[C@@H](CCCN=C(N)N)C(=O)N[C@@H](Cc2c[nH]c3ccccc23)C(N)=O)cc1`, for which the binding affinity (radioligand displacement) at Melanocortin receptor 4 is 38 nM. The molecule also displayed a Hill coefficient in data set [1] of 1.05.

As for `CC(=O)N[C@@H](Cc1c[nH]cn1)C(=O)N[C@H](Cc1ccccc1)C(=O)N[C@@H](CCCN=C(N)N)C(=O)N[C@@H](Cc1c[nH]c2ccccc12)C(=O)NCCCC[C@H](NC(=O)CCNC(=O)CNC(=O)CCNC(=O)[C@H](Cc1c[nH]c2ccccc12)NC(=O)[C@H](CCCN=C(N)N)NC(=O)[C@@H](Cc1ccccc1)NC(=O)[C@H](Cc1c[nH]cn1)NC(C)=O)C(=O)NCCC(=O)NCC(=O)NCCC(=O)N[C@@H](Cc1c[nH]cn1)C(=O)N[C@H](Cc1ccccc1)C(=O)N[C@@H](CCCN=C(N)N)C(=O)N[C@@H](Cc1c[nH]c2ccccc12)C(N)=O`, the binding affinity (radioligand displacement) on Melanocortin receptor 4 (hek293) was 24 nM. The molecule further displayed a Hill coefficient in data set [1] of 1.56.

As to `CCCC[C@H](NC(C)=O)C(=O)N[C@@H](CCC(=O)O)C(=O)N[C@@H](Cc1cnc[nH]1)C(=O)N[C@H](Cc1ccccc1)C(=O)N[C@@H](CCCNC(=N)N)C(=O)N[C@@H](Cc1c[nH]c2ccccc12)C(=O)NCCCOCCOCCOCCCNC(=O)CCC(=O)NCCCOCCOCCOCCCNC(=O)CCC(=O)N[C@@H](CCCC)C(=O)N[C@@H](CCC(=O)O)C(=O)N[C@@H](Cc1cnc[nH]1)C(=O)N[C@H](Cc1ccccc1)C(=O)N[C@@H](CCCNC(=N)N)C(=O)N[C@@H](Cc1c[nH]c2ccccc12)C(N)=O`, the binding affinity (radioligand displacement) at Melanocortin receptor 4 (hek293) is 122 nM. The Hill coefficient in data set [1] was found to be 0.97.

For the molecule `CCCC[C@H](NC(C)=O)C(=O)N[C@@H](CCC(=O)O)C(=O)N[C@@H](Cc1c[nH]cn1)C(=O)N[C@H](Cc1ccccc1)C(=O)N[C@@H](CCCN=C(N)N)C(=O)N[C@@H](Cc1c[nH]c2ccccc12)C(=O)NCCCOCCOCCOCCCNC(=O)CCC(=O)N[C@@H](CCCC)C(=O)N[C@@H](CCC(=O)O)C(=O)N[C@@H](Cc1c[nH]cn1)C(=O)N[C@H](Cc1ccccc1)C(=O)N[C@@H](CCCN=C(N)N)C(=O)N[C@@H](Cc1c[nH]c2ccccc12)C(N)=O`, the binding affinity (radioligand displacement) on Melanocortin receptor 4 (hek293) turned out to be 33 nM. The molecule also registered a Hill coefficient in data set [1] of 1.59.

Regarding `CCCC[C@H](NC(C)=O)C(=O)N[C@@H](CCC(=O)O)C(=O)N[C@@H](Cc1c[nH]cn1)C(=O)N[C@H](Cc1ccccc1)C(=O)N[C@@H](CCCN=C(N)N)C(=O)N[C@@H](Cc1c[nH]c2ccccc12)C(=O)NCCOCCOCCNC(=O)CCC(=O)N[C@@H](CCCC)C(=O)N[C@@H](CCC(=O)O)C(=O)N[C@@H](Cc1c[nH]cn1)C(=O)N[C@H](Cc1ccccc1)C(=O)N[C@@H](CCCN=C(N)N)C(=O)N[C@@H](Cc1c[nH]c2ccccc12)C(N)=O`, the binding affinity (radioligand displacement) at Melanocortin receptor 4 came out at 9 nM. In addition, the Hill coefficient in data set [1] worked out at 1.23.

As for `CC(=O)N[C@@H](Cc1c[nH]cn1)C(=O)N[C@H](Cc1ccccc1)C(=O)N[C@@H](CCCN=C(N)N)C(=O)N[C@@H](Cc1c[nH]c2ccccc12)C(=O)NCCCOCCOCCOCCCNC(=O)CCC(=O)N[C@@H](Cc1c[nH]cn1)C(=O)N[C@H](Cc1ccccc1)C(=O)N[C@@H](CCCN=C(N)N)C(=O)N[C@@H](Cc1c[nH]c2ccccc12)C(N)=O`, the binding affinity (radioligand displacement) at Melanocortin receptor 4 (hek293) was 662 nM. Besides, the Hill coefficient in data set [1] came out at 1.83.

As for `CC(=O)N[C@@H](Cc1c[nH]cn1)C(=O)N[C@H](Cc1ccccc1)C(=O)N[C@@H](CCCN=C(N)N)C(=O)N[C@@H](Cc1c[nH]c2ccccc12)C(=O)NCCC(=O)N[C@@H](Cc1c[nH]cn1)C(=O)N[C@H](Cc1ccccc1)C(=O)N[C@@H](CCCN=C(N)N)C(=O)N[C@@H](Cc1c[nH]c2ccccc12)C(N)=O`, the binding affinity (radioligand displacement) on Melanocortin receptor 4 came to 119 nM. The molecule also showed a Hill coefficient in data set [1] of 1.39.

As to `CC(=O)N[C@@H](Cc1c[nH]cn1)C(=O)N[C@H](Cc1ccccc1)C(=O)N[C@@H](CCCN=C(N)N)C(=O)N[C@@H](Cc1c[nH]c2ccccc12)C(=O)NCCCC[C@H](NC(=O)CCNC(=O)[C@H](Cc1c[nH]c2ccccc12)NC(=O)[C@H](CCCN=C(N)N)NC(=O)[C@@H](Cc1ccccc1)NC(=O)[C@H](Cc1c[nH]cn1)NC(C)=O)C(=O)NCCC(=O)N[C@@H](Cc1c[nH]cn1)C(=O)N[C@H](Cc1ccccc1)C(=O)N[C@@H](CCCN=C(N)N)C(=O)N[C@@H](Cc1c[nH]c2ccccc12)C(N)=O`, the binding affinity (radioligand displacement) on Melanocortin receptor 4 (hek293) worked out at 15 nM. In addition, the Hill coefficient in data set [1] was determined as 1.13.

Turning to `CC(=O)N[C@@H](Cc1c[nH]cn1)C(=O)N[C@H](Cc1ccccc1)C(=O)N[C@@H](CCCN=C(N)N)C(=O)N[C@@H](Cc1c[nH]c2ccccc12)C(=O)NCCOCCOCCNC(=O)CCC(=O)N[C@@H](Cc1c[nH]cn1)C(=O)N[C@H](Cc1ccccc1)C(=O)N[C@@H](CCCN=C(N)N)C(=O)N[C@@H](Cc1c[nH]c2ccccc12)C(N)=O`, on Melanocortin receptor 4, the binding affinity (radioligand displacement) came to 234 nM. Also, the Hill coefficient in data set [1] was found to be 1.1.

As for `CC(=O)N[C@@H](Cc1c[nH]cn1)C(=O)N[C@H](Cc1ccccc1)C(=O)N[C@@H](CCCN=C(N)N)C(=O)N[C@@H](Cc1c[nH]c2ccccc12)C(=O)Nc1ccc(C(=O)Nc2ccc(C(=O)N[C@@H](Cc3c[nH]cn3)C(=O)N[C@H](Cc3ccccc3)C(=O)N[C@@H](CCCN=C(N)N)C(=O)N[C@@H](Cc3c[nH]c4ccccc34)C(N)=O)cc2)cc1`, the binding affinity (radioligand displacement) on Melanocortin receptor 4 is 123 nM. In data set [1], this molecule yielded a Hill coefficient of 1.12.

In the case of `CC(=O)N[C@@H](Cc1cnc[nH]1)C(=O)N[C@H](Cc1ccccc1)C(=O)N[C@@H](CCCNC(=N)N)C(=O)N[C@@H](Cc1c[nH]c2ccccc12)C(=O)Nc1ccc(C(=O)Nc2ccc(C(=O)Nc3ccc(C(=O)N[C@@H](Cc4cnc[nH]4)C(=O)N[C@H](Cc4ccccc4)C(=O)N[C@@H](CCCNC(=N)N)C(=O)N[C@@H](Cc4c[nH]c5ccccc45)C(N)=O)cc3)cc2)cc1`, the binding affinity (radioligand displacement) on Melanocortin receptor 4 is 164 nM. In data set [1], this molecule returned a Hill coefficient of 1.05.

For `CCCC[C@H](NC(C)=O)C(=O)N[C@@H](CCC(=O)O)C(=O)N[C@@H](Cc1cnc[nH]1)C(=O)N[C@H](Cc1ccccc1)C(=O)N[C@@H](CCCNC(=N)N)C(=O)N[C@@H](Cc1c[nH]c2ccccc12)C(=O)NCCC(=O)NCC(=O)NCCC(=O)N[C@@H](CCCC)C(=O)N[C@@H](CCC(=O)O)C(=O)N[C@@H](Cc1cnc[nH]1)C(=O)N[C@H](Cc1ccccc1)C(=O)N[C@@H](CCCNC(=N)N)C(=O)N[C@@H](Cc1c[nH]c2ccccc12)C(N)=O`, the binding affinity (radioligand displacement) at Melanocortin receptor 4 came to 7 nM. Further, the Hill coefficient in data set [1] turned out to be 0.91.

As for `CC(=O)N[C@@H](Cc1c[nH]cn1)C(=O)N[C@H](Cc1ccccc1)C(=O)N[C@@H](CCCN=C(N)N)C(=O)N[C@@H](Cc1c[nH]c2ccccc12)C(=O)NCCC(=O)NCC(=O)NCCC(=O)NCC(=O)NCCC(=O)N[C@@H](Cc1c[nH]cn1)C(=O)N[C@H](Cc1ccccc1)C(=O)N[C@@H](CCCN=C(N)N)C(=O)N[C@@H](Cc1c[nH]c2ccccc12)C(N)=O`, at Melanocortin receptor 4, the binding affinity (radioligand displacement) was 231 nM. In data set [1], this molecule showed a Hill coefficient of 1.09.
